Assays:
[1] = system: ED patient (ED); assay: Clinical observation 1: ED patient, hypertension; format: in vivo, human; settings: oral sildenafil 3 months, before the combination
[2] = system: patient with erectile dysfunction (勃起功能障碍); assay: Clinical observation 2: patient with erectile dysfunction and premature ejaculation; format: in vivo, human; settings: oral sildenafil 3 months, before the combination
[3] = system: neurogenic ED rat model (神经性ED大鼠模型); assay: Test example 3: mating behaviour in rats with cavernous nerve injury; format: in vivo, SD rat; settings: alprostadil alone, intracavernosal, 14 days
[4] = system: aged rat ED model (老年性大鼠ED模型); assay: Test example 2: apomorphine-induced erection and electrically evoked erection in aged rats; format: in vivo, SD rat; settings: alprostadil alone, intracavernosal, 14 days
[5] = system: vascular ED rabbit model (血管性ED家兔模型); assay: Test example 1: mating test in vascular ED rabbits; format: in vivo, New Zealand white rabbit; settings: alprostadil alone, intracavernosal; for sexual activity parameters overall vs model group: once daily 1 week

Structure (SMILES): CCCc1nn(C)c2c(=O)[nH]c(-c3cc(S(=O)(=O)N4CCN(C)CC4)ccc3OCC)nc12 [西地那非]
- attempted intercourse with sufficient sexual stimulation [1]: 尝试性交失败
- IIEF-5 score after sildenafil ([1]; baseline 4): 5
- intercourse satisfaction [2]: 未得到提高
- overall satisfaction [2]: 略有下降
- IIEF-5 score after sildenafil ([2]; baseline 12): 12

Structure (SMILES): CCCCC[C@H](O)/C=C/[C@H]1[C@H](O)CC(=O)[C@@H]1CCCCCCC(=O)O [前列地尔, (1R,2R,3R)-3-羟基2-[(E)-(3S)-3-羟基-1-辛烯基]-5-氧代环戊烷庚酸]
- sexual activity parameters overall vs model group ([3]; high dose 10μg/kg): 总体优于模型组
- sexual activity parameters overall vs model group ([3]; low dose 0.1μg/kg): 总体优于模型组
- sexual activity parameters overall vs model group ([4]; high dose 10μg/kg): 总体优于模型组
- sexual activity parameters overall vs model group ([4]; low dose, printed 0.02μg/kg): 总体优于模型组
- observed parameters vs control group ([5]; high dose 5μg/kg): 趋向于对照组
- sexual activity parameters overall vs model group ([5]; high dose 5μg/kg): 总体优于模型组
- sexual activity parameters overall vs model group ([5]; low dose 0.05μg/kg): 总体优于模型组
